Measured values as given in ChEMBL document CHEMBL4311981, “Synthesis, anticancer activity, and molecular modeling of 1,4-naphthoquinones that inhibit MKK7 and Cdc25” (Eur J Med Chem, 2019).
The source made the active and inactive calls. No cut-off for these calls is given here.

Key:
[1] = target: T1, M-phase inducer phosphatase 2 (Homo sapiens, UniProt P30305)
T1 sequence (P30305 whole entry): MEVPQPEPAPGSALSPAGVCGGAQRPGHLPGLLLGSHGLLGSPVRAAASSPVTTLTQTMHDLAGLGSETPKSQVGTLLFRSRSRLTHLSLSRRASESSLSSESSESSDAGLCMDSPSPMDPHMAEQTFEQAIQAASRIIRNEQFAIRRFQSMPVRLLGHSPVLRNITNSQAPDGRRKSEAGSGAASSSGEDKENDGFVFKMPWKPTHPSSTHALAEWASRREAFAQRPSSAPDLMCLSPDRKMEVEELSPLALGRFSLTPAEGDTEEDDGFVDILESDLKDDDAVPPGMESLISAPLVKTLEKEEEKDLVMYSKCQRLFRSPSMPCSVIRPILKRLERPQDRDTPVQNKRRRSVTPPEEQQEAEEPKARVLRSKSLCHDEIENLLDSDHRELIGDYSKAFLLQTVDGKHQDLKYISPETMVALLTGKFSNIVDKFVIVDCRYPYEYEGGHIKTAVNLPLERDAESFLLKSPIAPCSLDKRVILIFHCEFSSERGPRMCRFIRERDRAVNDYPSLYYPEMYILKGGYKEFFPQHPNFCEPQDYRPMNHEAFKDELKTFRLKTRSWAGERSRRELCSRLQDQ
Description: Inhibition of recombinant Cdc25B (unknown origin) using OMFP as substrate measured every 30 sec for 10 mins by fluorometric assay

[2] = target: T2, Neutrophil elastase (Homo sapiens) (UniProt P08246); experiment: Inhibition of recombinant HNE (unknown origin) at <50 uM using N-methylsuccinyl-Ala-Ala-Pro-Val-7-amino-4-methylcoumarin, as a substrate measured every 30 sec for 10 mins by fluorometric assay
T2 sequence (whole entry): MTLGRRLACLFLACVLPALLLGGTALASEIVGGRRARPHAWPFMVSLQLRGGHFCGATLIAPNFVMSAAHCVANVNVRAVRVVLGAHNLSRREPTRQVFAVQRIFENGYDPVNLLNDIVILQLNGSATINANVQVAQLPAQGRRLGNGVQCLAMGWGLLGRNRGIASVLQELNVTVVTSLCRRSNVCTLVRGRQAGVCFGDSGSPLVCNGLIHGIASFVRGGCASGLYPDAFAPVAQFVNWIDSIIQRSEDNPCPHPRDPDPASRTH

[3] = target: T3, Dual specificity mitogen-activated protein kinase kinase 7 (Homo sapiens) (UniProt O14733); experiment: Binding affinity to MKK7 (unknown origin) expressed in HEK293 cells assessed as dissociation constant at <30 uM by kinomescan method; assay type: cell-based
T3 sequence (whole entry): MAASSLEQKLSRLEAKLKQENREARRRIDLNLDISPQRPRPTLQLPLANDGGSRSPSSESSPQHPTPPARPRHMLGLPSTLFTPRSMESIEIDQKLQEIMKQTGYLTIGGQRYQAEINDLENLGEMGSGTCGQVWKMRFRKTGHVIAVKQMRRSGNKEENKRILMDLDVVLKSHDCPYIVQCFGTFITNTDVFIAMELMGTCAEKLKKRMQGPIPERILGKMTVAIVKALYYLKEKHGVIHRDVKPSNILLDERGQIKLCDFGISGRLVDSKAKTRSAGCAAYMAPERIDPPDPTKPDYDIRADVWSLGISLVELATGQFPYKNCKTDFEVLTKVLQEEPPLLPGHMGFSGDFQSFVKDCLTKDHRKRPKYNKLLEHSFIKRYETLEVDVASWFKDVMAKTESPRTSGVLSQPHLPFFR

[4] = target: T4, M-phase inducer phosphatase 1 (Homo sapiens, UniProt P30304)
T4 sequence (P30304 whole entry): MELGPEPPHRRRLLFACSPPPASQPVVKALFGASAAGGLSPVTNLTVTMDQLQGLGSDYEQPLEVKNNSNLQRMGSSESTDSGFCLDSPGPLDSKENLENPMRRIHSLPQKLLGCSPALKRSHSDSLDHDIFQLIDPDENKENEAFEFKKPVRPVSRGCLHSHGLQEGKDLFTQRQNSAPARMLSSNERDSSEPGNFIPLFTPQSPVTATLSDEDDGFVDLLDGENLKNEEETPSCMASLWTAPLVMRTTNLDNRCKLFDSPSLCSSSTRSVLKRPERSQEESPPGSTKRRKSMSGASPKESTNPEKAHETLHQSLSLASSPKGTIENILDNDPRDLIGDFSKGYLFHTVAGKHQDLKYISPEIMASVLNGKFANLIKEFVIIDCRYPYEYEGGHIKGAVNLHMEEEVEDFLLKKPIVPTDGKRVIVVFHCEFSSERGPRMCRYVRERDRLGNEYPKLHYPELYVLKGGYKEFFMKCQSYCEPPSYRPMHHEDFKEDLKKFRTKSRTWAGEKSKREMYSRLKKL
Description: Inhibition of recombinant Cdc25A (unknown origin) using OMFP as substrate measured every 30 sec for 10 mins by fluorometric assay

[5] = target: T5, Dual specificity mitogen-activated protein kinase kinase 7 (Homo sapiens, UniProt O14733); experiment: biochemical
T5 sequence (O14733 whole entry): T3 sequence (whole entry)
Description: Binding affinity to MKK7 (unknown origin) expressed in HEK293 cells assessed as dissociation constant by kinomescan method

U-937 = experiment: Cytotoxicity against human U937 cells assessed as reduction in cell viability incubated for 24 hrs by CellTiter-Glo luminescent cell viability assay; assay type: functional, cell-based; settings: U-937, 24 h
Jurkat = experiment: cells; settings: Homo sapiens, 24 h
Description: Cytotoxicity against human Jurkat cells assessed as reduction in cell viability incubated for 24 hrs by CellTiter-Glo luminescent cell viability assay

MONO-MAC-6 = experiment: Cytotoxicity against human MONO-MAC-6 cells assessed as reduction in cell viability incubated for 24 hrs by CellTiter-Glo luminescent cell viability assay; assay type: functional, cell-based; settings: MONO-MAC-6, 24 h
SW982 = experiment: Cytotoxicity against human SW982 cells assessed as reduction in cell viability incubated for 24 hrs by CellTiter-Glo luminescent cell viability assay; assay type: functional, cell-based; settings: SW982, 24 h
A549 = experiment: Cytotoxicity against human A549 cells assessed as reduction in cell viability incubated for 24 hrs by CellTiter-Glo luminescent cell viability assay; assay type: functional, cell-based; settings: A549, 24 h
PBMC = experiment: Cytotoxicity against human PBMC cells assessed as reduction in cell viability incubated for 24 hrs by CellTiter-Glo luminescent cell viability assay; assay type: cell-based; settings: read-out: IC50
HL-60 = experiment: Cytotoxicity against human HL60 cells assessed as reduction in cell viability incubated for 24 hrs by CellTiter-Glo luminescent cell viability assay; assay type: functional, cell-based; settings: HL-60, 24 h
THP-1 = experiment: Cytotoxicity against human THP1 cells assessed as reduction in cell viability incubated for 24 hrs by CellTiter-Glo luminescent cell viability assay; assay type: functional, cell-based; settings: THP-1, 24 h
LS174T = experiment: Cytotoxicity against human LS174T cells assessed as reduction in cell viability incubated for 24 hrs by CellTiter-Glo luminescent cell viability assay; assay type: functional, cell-based
MCF7 = experiment: Cytotoxicity against human MCF7 cells assessed as reduction in cell viability incubated for 24 hrs by CellTiter-Glo luminescent cell viability assay; assay type: functional, cell-based; settings: MCF7, 24 h

`O=C(O)CCCCCNC1=C(Cl)C(=O)c2ccccc2C1=O` was tested, and the IC50 [1] was 23.7 µM, the inhibition [2] was “inactive” and the inhibition [3] was “inactive”. It also gave an IC50 [4] of 36.4 µM.
`O=C1C(O)=C(CN(CCCl)CCCl)C(=O)c2ccccc21` was tested, and the IC50 [4] was 15.4 µM.
With `CC1=C(SCCC(=O)O)C(=O)c2ccccc2C1=O` the Kd [5] was 15 µM, the inhibition [2] was “inactive” and the IC50 [4] was 5.1 µM.
`COC1=CC(=O)c2ccccc2C1=O` [2-Methoxy-1,4-naphthoquinone] was tested, and the IC50 [1] was 46.8 µM, the IC50 (U-937) was 13.9 µM and the inhibition [2] was “inactive”. The IC50 (Jurkat) was 16.1 µM, the IC50 (MONO-MAC-6) was 4.8 µM and the IC50 (SW982) was 29.8 µM. For the same molecule, the Activity [3] was “inactive”, the IC50 (A549) was 16.4 µM and the IC50 (PBMC) was 29.8 µM. The IC50 (HL-60) was 7.1 µM, the IC50 (THP-1) was 16.6 µM and the IC50 (LS174T) was 33.7 µM. For the same molecule, the IC50 [4] was 2.3 µM and the IC50 (MCF7) was 6.1 µM.
In the case of `O=C(O)CCNC1=C(Cl)C(=O)c2ccccc2C1=O`, the IC50 [1] is reported as 28.8 µM, the inhibition [2] is reported as “inactive” and the inhibition [3] is reported as “inactive”. The IC50 [4] was 26.1 µM.
For `CC1=C(SCCO)C(=O)c2ccccc2C1=O`, the IC50 [1] was 10.9 µM, the IC50 (U-937) was 12.1 µM and the inhibition [2] was “inactive”. For the same molecule, the IC50 (Jurkat) was 6.8 µM, the IC50 (MONO-MAC-6) was 6.3 µM and the IC50 (SW982) was 19.3 µM. The Activity [3] was “inactive”, the IC50 (A549) was 41.3 µM and the IC50 (PBMC) was 13.3 µM. The IC50 (HL-60) was 9.3 µM, the IC50 (THP-1) was 3.9 µM and the IC50 (LS174T) was 39.4 µM. The IC50 [4] was 4.5 µM and the IC50 (MCF7) was 30.9 µM.
For `O=C(O)CCNC(=O)Cn1cnc2ccccc2c1=O`, the Activity [3] was “inactive”.
With `COC(=O)c1ccc(NC2=C(N3CCCCC3)C(=O)c3ccccc3C2=O)cc1` the IC50 [1] was 14.2 µM, the inhibition [2] was “inactive” and the inhibition [3] was “inactive”. For the same molecule, the IC50 [4] was 11.6 µM.
`CC1=CC(=O)c2ccccc2C1=O` [MENADIONE] was tested, and the IC50 [1] was 3.9 µM, the IC50 (U-937) was 6.3 µM and the inhibition [2] was “inactive”. For the same molecule, the IC50 (Jurkat) was 5 µM, the IC50 (SW982) was 9.3 µM and the Activity [3] was “inactive”. It also gave an IC50 (A549) of 25.1 µM, an IC50 (PBMC) of 14.5 µM and an IC50 (HL-60) of 5.6 µM. It also gave an IC50 (LS174T) of 26.6 µM, an IC50 [4] of 6.9 µM and an IC50 (MCF7) of 9 µM.
With `O=C(O)CCSc1nc(O)c2ccccc2n1` the Activity [3] was “inactive”.
With `O=C(O)CCCc1nc2ccccc2c(=O)[nH]1` the Activity [3] was “inactive”.
For `O=C(O)CCCNC1=C(Cl)C(=O)c2ccccc2C1=O`, the IC50 [1] was 10.9 µM, the inhibition [2] was “inactive” and the inhibition [3] was “inactive”. For the same molecule, the IC50 [4] was 8.2 µM.
For `CCSC1=C(C)C(=O)c2ccccc2C1=O`, the IC50 [1] was 4.7 µM, the IC50 (U-937) was 6.7 µM and the Kd [5] was 13 µM. The inhibition [2] was “inactive”, the IC50 (Jurkat) was 3.9 µM and the IC50 (MONO-MAC-6) was 3.3 µM. The IC50 (SW982) was 7.8 µM, the IC50 (A549) was 21.5 µM and the IC50 (HL-60) was 3.1 µM. It also gave an IC50 (THP-1) of 2.9 µM, an IC50 (LS174T) of 17.3 µM and an IC50 [4] of 5.5 µM. For the same molecule, the IC50 (MCF7) was 12.2 µM.
